This test has as its system eIF2-GTP-Met-tRNAi ternary complex. The test can be described thus: Ternary complex assay (dual luciferase, firefly/renilla ratio) in stable KLN-tTA/pBISA-DL(ATF-4) cells; HTS and hit confirmation. The settings on record: confirmed hits of the screen (Table 5); for Activity 2.5 uM: compound at 2.5 uM; for Activity 10 uM: compound at 10 uM; for Activity 5 uM: compound at 5 uM. Also on record: Activity 10 uM / Activity 2.5 uM / Activity 5 uM: unit not given here. It counts as cell-based, mouse. From the text: For assay development, a bi-directional plasmid was designed in which a common promoter/enhancer complex drives the transcription of firefly luciferase (F-luc) ORF fused to the 5′ untranslated region (UTR) of ATF-4, and of the renilla luciferase (R-luc) ORF fused to a 90-nucleotide 5′ UTR derived from the plasmid (FIG. 6A). Because the tetracycline-regulated transactivator ((tTA), required for driving transcription from this vector) is not normally expressed in the mammalian cells, stable KLN cancer cells were constructed that expressed tTA (KLN-tTA).
The KLN-tTA colonies that drove expression of reporter genes from pBISA-DL plasmid were selected by transient transfection and dual luciferase assay. One of these KLN-tTA cell lines was transfected with the pBISA-DL^(ATF-4) expression vector, stable colonies were selected by dual luciferase assay and expanded. To determine if reduced availability of the eIF2*GTP*Met-tRNAi ternary complex increased the translation of firefly luciferase and decreased translation of renilla luciferase, selected KLN-tTA/pBISA-DL^(AFT-4) colonies were treated with thapsigargin (TG) or tunicamycin (TU), two agents known to cause phosphorylation of eIF2α.
This assay was then adapted for high throughput screening in 96 and 384 well plates. This was done by evaluating the cell density, length of exposure to compounds, DMSO tolerance and optimum firefly and renilla substrate. We then challenged these cells with thapsigargin or DMSO. […] Cell-based assays usually have higher variation than homogeneous in vitro assays due to position effect in the plate, and other variables associated with handling of cells and the plates.
Screening was conducted in 384 well white opaque plates (Nalge Nunc), 100 μl volume RPMI+10% fetal bovine serum. Cells were plated at the sub-confluent density of 10,000 cells/well, and allowed to attach for a period of 16-18 hours at 37° C., 5% CO2. Compounds were added as 1 μl of a 1 mM DMSO stock solution for a final screening concentration of 10 μM, using low-volume tips for transfer (Molecular Bioproducts). Cells were then incubated in the presence of compound for an additional sixteen hours, again at 37° C., 5% CO2. Following incubation 70 μl of the culture medium was removed from each well to allow for reagent addition and plates were allowed to equilibrate to room temperature for thirty minutes. Firefly luciferase reporter activity was then read by the addition of thirty microliters of Dual Glo Luciferase reagent (Promega), followed by one hour incubation at room temperature to allow for adequate signal buildup. Luminescence counting was conducted on a Microbeta Trilux using a 1 second read time. Renilla luciferase reporter activity was measured following addition of 30 μl Stop and Glo Luciferase reagent (Promega) and incubation identical to the one carried out for the firefly luciferase one.
Compound scores were interpreted as firefly luciferase activity divided by renilla luciferase activity, normalized to the plate's DMSO control. […] All data analysis was conducted using the BioAssay HTS software package (CambridgeSoft).
102,709 compounds in the NCI Open Chemical Repository were then screened using this HTS assay. […] Initial hits were confirmed by repeating the same dual luciferase assay in 96 well plates. Briefly, 20,000 cells/well were plated in triplicate for each concentration (10, 5 and 2.5 μM) of the compounds.

Consider `Cc1cc2c(C(C)C)c(O)c(O)c(C=Nc3cc(C(F)(F)F)ccc3Cl)c2c(O)c1-c1c(C)cc2c(C(C)C)c(O)c(O)c(C=Nc3cc(C(F)(F)F)ccc3Cl)c2c1O` [Compound 52531], for which the “Activity 2.5 uM” value stood at 0.8 and the “Activity 10 uM” value came to 5.18. Take `O=C(Nc1ccc(Cl)cc1)C(Cl)C(Cl)c1ccccc1` (stereo not shown) [Compound 54895]: the “Activity 5 uM” value was 4.288 and the “Activity 10 uM” value was determined as 4.975. As for `O=C(/C=C/c1ccc(Cl)cc1)CC(Cl)c1ccc(Cl)cc1` (stereo not shown) [Compound 54905], the “Activity 5 uM” value is 11.56 and the “Activity 10 uM” value worked out at 16.011. For `CCCCCCCCCCCCCCCC[N+]1(C)CC2CCCCC2C1` (stereo not shown) [Compound 55237], in that order: 3.4 and 6.6.

For the molecule `CCCCCCCCCCCCCCCC[N+]1(CCCCCCCCCC)CC2CCCCC2C1.[I-]` (stereo not shown) [Compound 55240], the “Activity 5 uM” value was 4.2 and the “Activity 10 uM” value came out at 5.2. Regarding `Cc1ccc(-c2cc(-c3ccccc3)[s+]c3ccc(C)cc23)cc1` [Compound 55867], the “Activity 5 uM” value is reported as 1.1 and the “Activity 10 uM” value is listed as 3.2.

Regarding `C[N+](C)=C1C=CC(=C2C=C(c3ccccc3)Oc3ccccc32)C=C1` [Compound 55869], the “Activity 5 uM” value is 13.24 and the “Activity 10 uM” value was 13.613. Turning to `O=C(C[Si](CC(=O)c1cccc(C(F)(F)F)c1)CC(=O)c1cccc(C(F)(F)F)c1)c1cccc(C(F)(F)F)c1` [Compound 55879], the “Activity 5 uM” value is 1.7 and the “Activity 10 uM” value was 3.8. For `Cc1cc(C(O)(c2ccc(N)cc2)c2ccc(N)cc2)ccc1N.Nc1ccc(C(O)(c2ccc(N)cc2)c2ccc(N)cc2)cc1` [Compound 56345], in that order: 3.4 and 3.64. For `CCN(CCO)c1ccc(N=Nc2ccc([N+](=O)[O-])cc2)cc1` [Compound 57019], in that order: 5.388 and 5.441. For `CCN(CC)c1ccc(C(O)C2=CC(=O)c3ccccc3C2=O)cc1` (stereo not shown) [Compound 58338], in that order: 11.604 and 17.599. As for `COc1ccc(/C=C/c2ccc3ccccc3n2)cc1O.Cl` [Compound 59070], the “Activity 5 uM” value was 6.227 and the “Activity 10 uM” value is reported as 7.423. For `C[C@]12CC[C@H]3[C@@H](CCC4=CC(=O)CC[C@@H]43)[C@@H]1CC[C@@]2(O)C#CC#C[C@]1(O)CC[C@H]2[C@@H]3CCC4=CC(=O)CC[C@@H]4[C@H]3CC[C@@]21C` [Compound 59465], in that order: 1.8 and 6.8.

As to `CCCCCCCC[N+](C)(CCCCCCCC)CCCCCCCC.[Cl-]` [Compound 61369], the “Activity 5 uM” value is recorded as 3 and the “Activity 10 uM” value was 4.4.

As for `O=c1cc(-c2ccc3ccccc3n2)oc2ccc(Cl)cc12` [Compound 61626], the “Activity 5 uM” value is on record as 2.793 and the “Activity 10 uM” value amounted to 3.1685. For `CN(C)c1ccc(C=Cc2ccnc3ccccc23)cc1.Cl` [Compound 63346], in that order: 6.234 and 6.8235.

On to `[Cl][Hg][Cl].c1cnccn1` [Compound 65429], for which the “Activity 2.5 uM” value amounted to 3.49. `S=P(Sc1ccccc1)(Sc1ccccc1)Sc1ccccc1` [Compound 65486]: the “Activity 5 uM” value stood at 17.496 and the “Activity 10 uM” value came out at 20.8755.

For `c1cc[c]([Hg][O]c2cccc3cccnc23)cc1` [Compound 66326], the “Activity 10 uM” value is on record as 5.2. On to `Cc1ccc(N=P2(Nc3ccc(C)cc3)N=P(Nc3ccc(C)cc3)(N3CC3)NP(=Nc3ccc(C)cc3)(N3CC3)N2)cc1` (stereo not shown) [Compound 67112], for which the “Activity 5 uM” value was 3.1 and the “Activity 10 uM” value was 16.3.

For the molecule `Cc1cc(N(CCCl)CCCl)ccc1N=Nc1ccccc1C(=O)[O-].Cc1cc(N(CCCl)CCCl)ccc1N=Nc1ccccc1C(=O)[O-].[Cu+2]` [Compound 68292], the “Activity 5 uM” value amounted to 7.2 and the “Activity 10 uM” value is listed as 18.3.

These data come from patent publication US9932300B2, “N,N′-diarylurea compounds and N,N′-diarylthiourea compounds as inhibitors of translation initiation” (President and Fellows of Harvard College, priority 2009, dated 2018).
